pKd, pKi: −log10 of the molar value. Where two headings read alike, the source gives them in different places.
Columns and labels:
[1] = tested on: fast Na+ channel, persistent Na+ channel, L-type Ca++ channel; settings: saturating dose of 5HT (1 μM); cited from earlier work
[2] = target: receptors of the 5HT1 class; settings: read-out: high-affinity binding for serotonin; cited from earlier work
5HT-Transporter = 5HT-Transporter (Homo sapiens, UniProt P31645); settings: read-out: Km of 5HT-Transporter; cited from earlier work
Sequence of 5HT-Transporter (P31645 whole entry): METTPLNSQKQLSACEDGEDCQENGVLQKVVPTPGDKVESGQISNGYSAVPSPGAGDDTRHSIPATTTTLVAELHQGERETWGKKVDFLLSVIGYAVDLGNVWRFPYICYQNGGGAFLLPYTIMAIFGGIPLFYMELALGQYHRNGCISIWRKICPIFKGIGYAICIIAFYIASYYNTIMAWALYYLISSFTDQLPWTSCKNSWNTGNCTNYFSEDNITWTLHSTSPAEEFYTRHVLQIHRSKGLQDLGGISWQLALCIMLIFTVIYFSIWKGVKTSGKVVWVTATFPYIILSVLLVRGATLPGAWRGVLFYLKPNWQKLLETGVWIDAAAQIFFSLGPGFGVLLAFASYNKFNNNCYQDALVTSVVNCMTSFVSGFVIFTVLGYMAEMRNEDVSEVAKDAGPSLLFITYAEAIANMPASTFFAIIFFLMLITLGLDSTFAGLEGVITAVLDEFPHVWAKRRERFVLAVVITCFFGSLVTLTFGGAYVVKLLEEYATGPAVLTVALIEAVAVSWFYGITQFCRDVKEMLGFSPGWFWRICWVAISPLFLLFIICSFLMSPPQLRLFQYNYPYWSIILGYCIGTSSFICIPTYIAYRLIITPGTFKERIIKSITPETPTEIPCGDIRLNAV

5HT1b/d autoreceptor = settings: cited from earlier work; for decrease of free 5HT: maximal stimulation of 5HT1b/d autoreceptor
D2-R [3] = target: T1, D2-R (Homo sapiens, UniProt P14416); settings: cited from earlier work
T1 sequence (P14416 whole entry): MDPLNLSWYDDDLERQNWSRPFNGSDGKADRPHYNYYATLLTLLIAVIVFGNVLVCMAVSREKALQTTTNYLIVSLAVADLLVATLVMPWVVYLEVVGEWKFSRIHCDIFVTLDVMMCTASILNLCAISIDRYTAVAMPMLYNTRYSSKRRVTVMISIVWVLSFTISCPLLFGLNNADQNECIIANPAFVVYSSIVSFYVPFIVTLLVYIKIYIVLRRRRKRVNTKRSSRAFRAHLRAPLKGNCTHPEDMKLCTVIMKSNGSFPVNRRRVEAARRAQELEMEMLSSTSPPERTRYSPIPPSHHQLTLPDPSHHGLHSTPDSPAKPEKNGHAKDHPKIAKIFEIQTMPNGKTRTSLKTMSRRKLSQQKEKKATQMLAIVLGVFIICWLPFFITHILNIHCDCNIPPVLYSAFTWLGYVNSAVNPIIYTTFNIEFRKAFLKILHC

D2-R [4] = target: T1, D2-R; test: Drug and tracer binding affinity and on/off rates at the D2-R (Table 1); settings: calculated as kon × Kd
5HT2C receptor = target: T2, 5HT2C receptor (Rattus norvegicus, UniProt P08909); settings: microdialysis, maximal effect; cited from earlier work
T2 construct: from tissue; host or cells: brain in vivo (microdialysis), value quoted from the literature
T2 sequence (P08909 33-460): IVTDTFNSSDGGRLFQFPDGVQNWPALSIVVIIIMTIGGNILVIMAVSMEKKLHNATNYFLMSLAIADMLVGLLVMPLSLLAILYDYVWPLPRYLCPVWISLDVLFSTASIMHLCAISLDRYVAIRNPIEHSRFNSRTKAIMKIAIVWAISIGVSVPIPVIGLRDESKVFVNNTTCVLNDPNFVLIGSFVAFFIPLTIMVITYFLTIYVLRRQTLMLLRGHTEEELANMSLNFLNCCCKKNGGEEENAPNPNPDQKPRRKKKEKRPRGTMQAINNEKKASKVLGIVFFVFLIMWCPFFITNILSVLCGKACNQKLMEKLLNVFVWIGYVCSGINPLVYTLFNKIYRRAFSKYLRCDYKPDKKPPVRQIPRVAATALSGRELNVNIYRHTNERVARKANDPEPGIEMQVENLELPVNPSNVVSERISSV

alpha 1-adrenoreceptor [5] = settings: nonspiking regions, human cortical membranes; read-out: affinity; cited from earlier work
alpha 1-adrenoreceptor [6] = settings: normal rat brain in vivo, cited from earlier work
α2 adrenergic receptors = settings: full stimulation of α2 receptors; cited from earlier work
α2-R = settings: read-out: Ki for NE at the α2-R; cited from earlier work
[7] = tested on: Norepinephrine Transporter (NET); settings: rat jejunum, cited from earlier work
NET = target: T3, NET (Rattus norvegicus, UniProt Q63380); settings: blocking the NET; cited from earlier work
T3 construct: from tissue
T3 sequence (Q63380 1-617): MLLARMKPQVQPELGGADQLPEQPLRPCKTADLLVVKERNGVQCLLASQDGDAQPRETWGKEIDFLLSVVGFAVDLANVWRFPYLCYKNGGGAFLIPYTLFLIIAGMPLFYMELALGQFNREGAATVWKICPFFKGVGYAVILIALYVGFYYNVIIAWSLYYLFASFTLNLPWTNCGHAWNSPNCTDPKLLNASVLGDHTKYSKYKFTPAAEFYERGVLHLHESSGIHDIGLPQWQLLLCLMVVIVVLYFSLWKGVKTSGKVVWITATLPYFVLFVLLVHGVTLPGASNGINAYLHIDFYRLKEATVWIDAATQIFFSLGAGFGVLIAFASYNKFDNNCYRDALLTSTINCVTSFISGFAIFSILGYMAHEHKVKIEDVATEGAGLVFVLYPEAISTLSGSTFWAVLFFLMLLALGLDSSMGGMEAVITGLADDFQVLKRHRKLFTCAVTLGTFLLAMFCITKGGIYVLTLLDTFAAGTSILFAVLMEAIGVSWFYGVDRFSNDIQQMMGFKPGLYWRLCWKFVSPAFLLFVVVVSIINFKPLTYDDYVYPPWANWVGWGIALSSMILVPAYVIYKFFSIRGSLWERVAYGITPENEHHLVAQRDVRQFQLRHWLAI

Question: Which “decrease of maximum conductance of fast Na+, persistent Na+ and L-type Ca++ channel” value [1] does the source give for `NCCc1c[nH]c2ccc(O)cc12` [5HT, serotonin] here?
Answer: 20%

Question: What about the pKd [2] of the same compound?
Answer: ~7.82

Question: What about the Km (5HT-Transporter) of the same compound?
Answer: 0.34 µM

Question: For `O=c1ccc2[nH]cc(C3=CCNCC3)c2[nH]1` [CP93,129], which “decrease of free 5HT” value (5HT1b/d autoreceptor) is on record?
Answer: 45%

Question: For `CN1CCC[C@@H]1Cc1c[nH]c2ccc(Nc3ncccc3[N+](=O)[O-])cc12` [CP135,807], which “decrease of free 5HT” value (5HT1b/d autoreceptor) is on record?
Answer: 45%

Question: With `CCN1CCC[C@H]1CNC(=O)c1c(OC)ccc(I)c1O` [IBZM] as the compound, how does the pKd (D2-R [3]; tracer, read-out: affinity of tracer for the D2-R) read?
Answer: 6.80

Question: What about the “Koff” value (D2-R [4]) of the same compound?
Answer: 0.0176 s⁻¹

Question: With `Cc1nc2n(c(=O)c1CCN1CCC(c3noc4cc(F)ccc34)CC1)CCCC2O` (stereo not drawn) [Paliperidone] as the compound, how does the pKd (D2-R [3]; at the D2-R, read-out: Kd) read?
Answer: 8.39

Question: For `C[C@H](N)Cn1ccc2cc(F)c(Cl)cc21` [Ro-60-0175], which “maximal reduction of free DA” value (5HT2C receptor) is on record?
Answer: 30%

Question: With `COc1cc2nc(N3CCN(C(=O)c4ccco4)CC3)nc(N)c2cc1OC` [[^3H]prazosin, prazosin] as the compound, how does the pKd (alpha 1-adrenoreceptor [5]) read?
Answer: 9.77

Question: With `O=C1c2ccccc2CCC1CNCCc1ccc(O)c(I)c1` (stereo not drawn) [[^125I]HEAT, [^125I]iodo-2-[beta-(4-hydroxyphenyl)ethylaminomethyl]] as the compound, how does the pKd (alpha 1-adrenoreceptor [6]; read-out: Kd (half-saturation constant), high-affinity site) read?
Answer: 8.44

Question: And the pKd (alpha 1-adrenoreceptor [6]; read-out: Kd, low-affinity site)?
Answer: 6.18

Question: With `Clc1cccc(Cl)c1N=C1NCCN1` [clonidine] as the compound, how does the “reduction of 5HT firing (and subsequent PFC 5HT release)” value (α2 adrenergic receptors) read?
Answer: 45%

Question: With `CC(C)NCC(O)COc1ccccc1-n1cccc1` (stereo not drawn) [isamoltane] as the compound, how does the “increase of free 5HT” value (5HT1b/d autoreceptor; maximal block of 5HT1b/d autoreceptor) read?
Answer: 50%

Question: With `NC[C@H](O)c1ccc(O)c(O)c1` [norepinephrine] as the compound, how does the pKi (α2-R) read?
Answer: 6.00

Question: And the Km ([7]; read-out: Km, low-affinity component (uptake 2))?
Answer: 111 µM

Question: And the Km ([7]; read-out: Michaelis constant (Km), high-affinity component (uptake 1))?
Answer: 1.72 µM

Question: For `COc1ccc(C(CN(C)C)C2(O)CCCCC2)cc1` (stereo not drawn) [venlafaxine], which “NE increase in cortex” value (NET) is on record?
Answer: 498%

— patent US20170372030A9, “METHOD AND APPARATUS FOR COMPUTER MODELING OF THE INTERACTION BETWEEN AND AMONG CORTICAL AND SUBCORTICAL AREAS IN THE HUMAN BRAIN FOR THE PURPOSE OF PREDICTING THE EFFECT OF DRUGS IN PSYCHIATRIC AND COGNITIVE DISEASES” (priority 2005, published 2017)
